Measurements taken from patent US10683272B2 (THE JOHNS HOPKINS UNIVERSITY, priority 2014, dated 2020).
Like-named read-outs stand apart in the source and are kept apart here.

Key:
PSMA = PSMA (Homo sapiens, UniProt Q04609); assay: PSMA inhibitory activities, fluorescence-based assay (Example 3); format: biochemical
Experimental: PSMA inhibitory activities were determined using a fluorescence-based assay (Banerjee, Pullambhatla, Byun, et al., 2011). Enzyme inhibitory constants (Ki values) were generated using the Cheng-Prusoff conversion (Cheng and Prusoff, 1973). Sub-lines of the androgen independent PC-3 human prostate cancer xenograft were used (Banerjee, Pullambhatla, Byun, et al., 2011). Those sub-lines have been modified to express high (PC-3 PIP) or naturally produce low (PC-3 flu) levels of PSMA (Dr. Warren Heston, Cleveland Clinic, Cleveland, Ohio).

[1] = system: PSMA+ PIP and PSMA− flu cells; assay: cell uptake and internalization study of ^177Lu-SRVI71; format: cell-based
[2] = system: PSMA+ PIP and PSMA− flu mouse xenografts; details: for uptake in PSMA+ tumor: n=4, text b326
Experimental: In vivo evaluation was performed in standard PSMA+ PIP and PSMA− flu mouse xenografts and by performing SPECT imaging with a VECT or instrument with an extra ultra-high sensitivity mouse collimator as disclosed FIG. 25A, FIG. 25B and FIG. 25C.

[3] = system: PC-3 PIP and PC-3 flu tumors

Chain of PSMA (Q04609 whole entry): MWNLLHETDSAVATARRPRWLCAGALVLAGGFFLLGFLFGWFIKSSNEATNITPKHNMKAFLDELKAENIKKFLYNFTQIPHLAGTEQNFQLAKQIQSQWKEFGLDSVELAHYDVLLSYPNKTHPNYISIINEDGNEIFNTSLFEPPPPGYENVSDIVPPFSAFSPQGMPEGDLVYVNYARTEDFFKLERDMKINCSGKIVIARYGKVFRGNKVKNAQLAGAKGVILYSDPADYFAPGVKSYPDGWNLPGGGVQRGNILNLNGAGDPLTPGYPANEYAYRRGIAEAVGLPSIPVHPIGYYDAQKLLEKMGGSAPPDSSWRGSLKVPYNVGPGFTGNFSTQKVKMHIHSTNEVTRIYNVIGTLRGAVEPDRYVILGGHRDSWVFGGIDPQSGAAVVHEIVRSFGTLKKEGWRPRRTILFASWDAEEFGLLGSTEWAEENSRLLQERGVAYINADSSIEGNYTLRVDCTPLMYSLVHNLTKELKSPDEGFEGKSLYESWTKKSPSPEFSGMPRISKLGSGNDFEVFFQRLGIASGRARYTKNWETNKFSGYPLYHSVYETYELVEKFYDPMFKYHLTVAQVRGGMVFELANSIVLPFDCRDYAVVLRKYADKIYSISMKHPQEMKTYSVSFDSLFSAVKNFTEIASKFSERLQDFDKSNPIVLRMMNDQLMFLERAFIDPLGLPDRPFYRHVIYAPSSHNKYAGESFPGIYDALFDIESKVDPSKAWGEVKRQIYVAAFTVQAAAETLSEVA

O=C([O-])CN1CCN(CC(=O)O)CCN(CC(=O)[O-])CC(Cc2ccc(NC(=S)NCCCCNC(=O)CCCCCCC(=O)NCCCC[C@H](NC(=O)N[C@@H](CCC(=O)O)C(=O)O)C(=O)O)cc2)N(CC(=O)[O-])CC1.[Y+3] (stereo partly drawn) [^89Y-6]
Ki (PSMA): 2.99 nM

O=C([O-])CN1CCN(CC(=O)[O-])CCN(CC(=O)[O-])C(Cc2ccc(NC(=S)NCCCCNC(=O)CCCCCCC(=O)NCCCC[C@H](NC(=O)N[C@@H](CCC(=O)O)C(=O)O)C(=O)O)cc2)CN(CC(=O)[O-])CC1.[177Lu+3] (stereo partly drawn) [^177Lu-SR-VI-71]
cell uptake ([1]; 0.01-10 μCi, PSMA+ PIP vs PSMA− flu): high uptake in PSMA+ PIP and negligible uptake in PSMA− flu tumor
blockade of uptake in PSMA+ cells ([1]; co-incubation of 10 μM of ZJ43): ~90%
fraction of total cell associated radioactivity internalized ([1]; internalization study): ~44%
PIP:flu ratio ([2]; 2 h): ~180
kidney uptake ([2]; 2 h): 89.3±28.9%
uptake in PSMA+ tumor ([2]; 2 h): 59.1±12.8 % ID/g
Tissue biodistribution, Blood ([2]; 3 h): 0.14 ± 0.04
Tissue biodistribution, Flu tumor ([2]; 3 h): 0.14 ± 0.03
Tissue biodistribution, PIP tumor ([2]; 3 h): 41.46 ± 7.88
Tissue biodistribution, SI ([2]; 3 h): 0.23 ± 0.12
Tissue biodistribution, heart ([2]; 3 h): 0.09 ± 0.04
Tissue biodistribution, kidney ([2]; 3 h): 53.66 ± 9.64
Tissue biodistribution, liver ([2]; 3 h): 0.31 ± 0.25
Tissue biodistribution, lung ([2]; 3 h): 0.62 ± 0.31
Tissue biodistribution, muscle ([2]; 3 h): 0.24 ± 0.14
Tissue biodistribution, salivary gland ([2]; 3 h): 0.42 ± 0.09
Tissue biodistribution, spleen ([2]; 3 h): 1.83 ± 0.38
Tissue biodistribution, Blood ([2]; 24 h): 0.03 ± 0.03
Tissue biodistribution, Flu tumor ([2]; 24 h): 0.09 ± 0.01
Tissue biodistribution, PIP tumor ([2]; 24 h): 27.52 ± 1.19
Tissue biodistribution, SI ([2]; 24 h): 0.10 ± 0.05
Tissue biodistribution, heart ([2]; 24 h): 0.04 ± 0.00
Tissue biodistribution, kidney ([2]; 24 h): 4.35 ± 0.41
Tissue biodistribution, liver ([2]; 24 h): 0.38 ± 0.35
Tissue biodistribution, lung ([2]; 24 h): 0.25 ± 0.026
Tissue biodistribution, muscle ([2]; 24 h): 0.04 ± 0.00
Tissue biodistribution, salivary gland ([2]; 24 h): 0.07 ± 0.08
Tissue biodistribution, spleen ([2]; 24 h): 0.74 ± 0.64
kidney uptake ([2]; 24 h): 6.29±3.4 % ID/g
uptake in PSMA+ tumor ([2]; 24 h): 40.6±5.8 ID/g
Tissue biodistribution, Blood ([2]; 48 h): 0.03 ± 0.03
Tissue biodistribution, Flu tumor ([2]; 48 h): 0.05 ± 0.00
Tissue biodistribution, PIP tumor ([2]; 48 h): 16.99 ± 2.65
Tissue biodistribution, SI ([2]; 48 h): 0.04 ± 0.01
Tissue biodistribution, heart ([2]; 48 h): 0.02 ± 0.00
Tissue biodistribution, kidney ([2]; 48 h): 2.35 ± 0.62
Tissue biodistribution, liver ([2]; 48 h): 0.11 ± 0.07
Tissue biodistribution, lung ([2]; 48 h): 0.06 ± 0.04
Tissue biodistribution, muscle ([2]; 48 h): 0.02 ± 0.00
Tissue biodistribution, salivary gland ([2]; 48 h): 0.10 ± 0.04
Tissue biodistribution, spleen ([2]; 48 h): 0.17 ± 0.05
Tissue biodistribution, Blood ([2]; 72 h): 0.01 ± 0.01
Tissue biodistribution, Flu tumor ([2]; 72 h): 0.04 ± 0.00
Tissue biodistribution, PIP tumor ([2]; 72 h): 15.63 ± 4.62
Tissue biodistribution, SI ([2]; 72 h): 0.05 ± 0.03
Tissue biodistribution, heart ([2]; 72 h): 0.03 ± 0.01
Tissue biodistribution, kidney ([2]; 72 h): 2.59 ± 1.10
Tissue biodistribution, liver ([2]; 72 h): 0.05 ± 0.03
Tissue biodistribution, lung ([2]; 72 h): 0.03 ± 0.02
Tissue biodistribution, muscle ([2]; 72 h): 0.01 ± 0.01
Tissue biodistribution, salivary gland ([2]; 72 h): 0.09 ± 0.04
Tissue biodistribution, spleen ([2]; 72 h): 0.09 ± 0.08
Tissue biodistribution, Blood ([2]; 96 h): 0.00 ± 0.00
Tissue biodistribution, Flu tumor ([2]; 96 h): 0.03 ± 0.0
Tissue biodistribution, PIP tumor ([2]; 96 h): 9.04 ± 1.72
Tissue biodistribution, SI ([2]; 96 h): 0.01 ± 0.00
Tissue biodistribution, heart ([2]; 96 h): 0.01 ± 0.00
Tissue biodistribution, kidney ([2]; 96 h): 1.44 ± 0.11
Tissue biodistribution, liver ([2]; 96 h): 0.04 ± 0.0
Tissue biodistribution, lung ([2]; 96 h): 0.05 ± 0.01
Tissue biodistribution, muscle ([2]; 96 h): 0.01 ± 0.0
Tissue biodistribution, salivary gland ([2]; 96 h): 0.06 ± 0.02
Tissue biodistribution, spleen ([2]; 96 h): 0.06 ± 0.03

NC(=O)CN1CCN(CC(N)=O)CCN(CC(N)=O)C(Cc2ccc(NC(=S)NCCCCNC(=O)CCCCCCC(=O)NCCCC[C@H](NC(=O)N[C@@H](CCC(=O)O)C(=O)O)C(=O)O)cc2)CN(CC(N)=O)CC1.[203Pb+2] (stereo partly drawn) [^203Pb-SR-IX-11]
PIP/flu ratio ([3]; 2 H): 114
Tissue biodistribution, Blood ([3]; 2 H): 0.07 ± 0.01
Tissue biodistribution, PC-3 PIP ([3]; 2 H): 21.64 ± 1.23
Tissue biodistribution, PC-3 flu ([3]; 2 H): 0.19 ± 0.04
Tissue biodistribution, Sm intestine ([3]; 2 H): 0.25 ± 0.15
Tissue biodistribution, bladder ([3]; 2 H): 8.64 ± 0.77
Tissue biodistribution, fat ([3]; 2 H): 1.54 ± 1.64
Tissue biodistribution, heart ([3]; 2 H): 0.07 ± 0.01
Tissue biodistribution, kidney ([3]; 2 H): 3.61 ± 0.81
Tissue biodistribution, liver ([3]; 2 H): 0.21 ± 0.01
Tissue biodistribution, lung ([3]; 2 H): 0.24 ± 0.03
Tissue biodistribution, muscle ([3]; 2 H): 0.78 ± 0.83
Tissue biodistribution, pancreas ([3]; 2 H): 0.06 ± 0.00
Tissue biodistribution, salivary gland ([3]; 2 H): 0.35 ± 0.10
Tissue biodistribution, spleen ([3]; 2 H): 0.25 ± 0.1
Tissue biodistribution, stomach ([3]; 2 H): 0.12 ± 0.00

O=C(O)CC[C@H](NC(=O)N[C@@H](CCCCNC(=O)CCCCCCC(=O)NCCCCNC(=S)Nc1ccc(CC2CN(CC(=O)O)CCN(CC(=O)O)CCN(CC(=O)O)CCN2CC(=O)O)cc1)C(=O)O)C(=O)O.[203Pb+2] (stereo partly drawn) [^203Pb-SR-VI-71]
PIP/flu ratio ([3]; 1 H): 98
Tissue biodistribution, Blood ([3]; 1 H): 0.60 ± 0.05
Tissue biodistribution, PC-3 PIP ([3]; 1 H): 41.88 ± 7.60
Tissue biodistribution, PC-3 flu ([3]; 1 H): 0.43 ± 0.11
Tissue biodistribution, Sm intestine ([3]; 1 H): 0.31 ± 0.05
Tissue biodistribution, bladder ([3]; 1 H): 5.96 ± 2.24
Tissue biodistribution, fat ([3]; 1 H): 0.77 ± 0.29
Tissue biodistribution, heart ([3]; 1 H): 0.30 ± 0.03
Tissue biodistribution, kidney ([3]; 1 H): 75.18 ± 9.94
Tissue biodistribution, liver ([3]; 1 H): 1.09 ± 0.07
Tissue biodistribution, lung ([3]; 1 H): 1.20 ± 0.19
Tissue biodistribution, muscle ([3]; 1 H): 0.22 ± 0.14
Tissue biodistribution, pancreas ([3]; 1 H): 0.49 ± 0.09
Tissue biodistribution, salivary gland ([3]; 1 H): 1.78 ± 0.69
Tissue biodistribution, spleen ([3]; 1 H): 5.07 ± 1.68
Tissue biodistribution, stomach ([3]; 1 H): 0.30 ± 0.04
PIP/flu ratio ([3]; 2 H): 130
Tissue biodistribution, Blood ([3]; 2 H): 0.31 ± 0.04
Tissue biodistribution, PC-3 PIP ([3]; 2 H): 38.14 ± 6.30
Tissue biodistribution, PC-3 flu ([3]; 2 H): 0.29 ± 0.14
Tissue biodistribution, Sm intestine ([3]; 2 H): 0.23 ± 0.04
Tissue biodistribution, bladder ([3]; 2 H): 10.40 ± 3.21
Tissue biodistribution, fat ([3]; 2 H): 0.31 ± 0.22
Tissue biodistribution, heart ([3]; 2 H): 0.14 ± 0.06
Tissue biodistribution, kidney ([3]; 2 H): 39.35 ± 7.28
Tissue biodistribution, liver ([3]; 2 H): 1.01 ± 0.21
Tissue biodistribution, lung ([3]; 2 H): 0.64 ± 0.14
Tissue biodistribution, muscle ([3]; 2 H): 0.22 ± 0.07
Tissue biodistribution, pancreas ([3]; 2 H): 0.29 ± 0.05
Tissue biodistribution, salivary gland ([3]; 2 H): 0.93 ± 0.07
Tissue biodistribution, spleen ([3]; 2 H): 1.59 ± 0.58
Tissue biodistribution, stomach ([3]; 2 H): 0.15 ± 0.03
PIP/flu ratio ([3]; 4 H): 178
Tissue biodistribution, Blood ([3]; 4 H): 0.24 ± 0.02
Tissue biodistribution, PC-3 PIP ([3]; 4 H): 34.74 ± 7.37
Tissue biodistribution, PC-3 flu ([3]; 4 H): 0.20 ± 0.06
Tissue biodistribution, Sm intestine ([3]; 4 H): 0.15 ± 0.04
Tissue biodistribution, bladder ([3]; 4 H): 1.94 ± 0.49
Tissue biodistribution, fat ([3]; 4 H): 0.31 ± 0.18
Tissue biodistribution, heart ([3]; 4 H): 0.09 ± 0.01
Tissue biodistribution, kidney ([3]; 4 H): 22.75 ± 6.22
Tissue biodistribution, liver ([3]; 4 H): 0.92 ± 0.09
Tissue biodistribution, lung ([3]; 4 H): 0.28 ± 0.04
Tissue biodistribution, muscle ([3]; 4 H): 0.06 ± 0.02
Tissue biodistribution, pancreas ([3]; 4 H): 0.24 ± 0.05
Tissue biodistribution, salivary gland ([3]; 4 H): 0.29 ± 0.02
Tissue biodistribution, spleen ([3]; 4 H): 0.72 ± 0.16
Tissue biodistribution, stomach ([3]; 4 H): 0.13 ± 0.03
PIP/flu ratio ([3]; 24 H): 194
Tissue biodistribution, Blood ([3]; 24 H): 0.21 ± 0.02
Tissue biodistribution, PC-3 PIP ([3]; 24 H): 27.92 ± 7.01
Tissue biodistribution, PC-3 flu ([3]; 24 H): 0.14 ± 0.01
Tissue biodistribution, Sm intestine ([3]; 24 H): 0.04 ± 0.03
Tissue biodistribution, bladder ([3]; 24 H): 0.31 ± 0.16
Tissue biodistribution, fat ([3]; 24 H): 0.05 ± 0.06
Tissue biodistribution, heart ([3]; 24 H): 0.07 ± 0.01
Tissue biodistribution, kidney ([3]; 24 H): 7.01 ± 0.80
Tissue biodistribution, liver ([3]; 24 H): 0.64 ± 0.04
Tissue biodistribution, lung ([3]; 24 H): 0.16 ± 0.01
Tissue biodistribution, muscle ([3]; 24 H): 0.04 ± 0.03
Tissue biodistribution, pancreas ([3]; 24 H): 0.09 ± 0.06
Tissue biodistribution, salivary gland ([3]; 24 H): 0.10 ± 0.05
Tissue biodistribution, spleen ([3]; 24 H): 0.24 ± 0.02
Tissue biodistribution, stomach ([3]; 24 H): 0.07 ± 0.01
